Assay results as given in patent publication US9113629B2, “4-amino-6-(4-substituted-phenyl)-picolinates and 6-amino-2-(4-substituted-phenyl)-pyrimidine-4-carboxylates and their use as herbicides” (DOW AGROSCIENCES LLC, priority 2013, dated 2015).

system: Key Grass and Sedge Weeds as well as Grass Crops; assay: Post-emergent Test II herbicidal activity (Table 6); format: in vivo; conditions: post-emergence, 336 h, CYPES: yellow nutsedge (Cyperus esculentus), application rate 70 g ai/ha, read-out: Visual Growth Reduction (%) 14 Days After Application, CYPES
Summary of the method: (§1)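 Greenhouse post-emergent assay: seedlings (first/second true leaf) in Metro-Mix 360 were sprayed at 187 L/ha at a top rate plus twofold dilutions down to 1/16×; solvent-blank controls were included. Percent visual injury was read at 14 d.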

Compound | pest or weed control at 70 g/ha
Nc1cc(-c2cc(F)c(OC(F)F)cc2F)nc(C(=O)O)c1Cl [Compound 187] | 0 to 29%

same assay, conditions: post-emergence, 336 h, CYPES: yellow nutsedge (Cyperus esculentus), application rate 140 g ai/ha, read-out: Visual Growth Reduction (%) 14 Days After Application, CYPES

Compound | pest or weed control at 140 g/ha
Nc1cc(-c2cc(F)c(OC(F)F)cc2F)nc(C(=O)O)c1Cl [Compound 187] | 30 to 44%

same assay, conditions: post-emergence, 336 h, DIGSA: crabgrass (Digitaria sanguinalis), application rate 70 g ai/ha, read-out: Visual Growth Reduction (%) 14 Days After Application, DIGSA

Compound | pest or weed control at 70 g/ha
Nc1cc(-c2cc(F)c(OC(F)F)cc2F)nc(C(=O)O)c1Cl [Compound 187] | 0 to 29%

same assay, conditions: post-emergence, 336 h, DIGSA: crabgrass (Digitaria sanguinalis), application rate 140 g ai/ha, read-out: Visual Growth Reduction (%) 14 Days After Application, DIGSA

Compound | pest or weed control at 140 g/ha
Nc1cc(-c2cc(F)c(OC(F)F)cc2F)nc(C(=O)O)c1Cl [Compound 187] | 0 to 29%

same assay, conditions: post-emergence, 336 h, ECHCG: barnyardgrass (Echinochloa crus-galli), application rate 70 g ai/ha, read-out: Visual Growth Reduction (%) 14 Days After Application, ECHCG

Compound | pest or weed control at 70 g/ha
Nc1cc(-c2cc(F)c(OC(F)F)cc2F)nc(C(=O)O)c1Cl [Compound 187] | 60 to 74%

same assay, conditions: post-emergence, 336 h, ECHCG: barnyardgrass (Echinochloa crus-galli), application rate 140 g ai/ha, read-out: Visual Growth Reduction (%) 14 Days After Application, ECHCG

Compound | pest or weed control at 140 g/ha
Nc1cc(-c2cc(F)c(OC(F)F)cc2F)nc(C(=O)O)c1Cl [Compound 187] | 60 to 74%

same assay, conditions: post-emergence, 336 h, ORYSA: rice (Oryza sativa), application rate 70 g ai/ha, read-out: Visual Growth Reduction (%) 14 Days After Application, ORYSA

Compound | pest or weed control at 70 g/ha
Nc1cc(-c2cc(F)c(OC(F)F)cc2F)nc(C(=O)O)c1Cl [Compound 187] | 0 to 29%

same assay, conditions: post-emergence, 336 h, ORYSA: rice (Oryza sativa), application rate 140 g ai/ha, read-out: Visual Growth Reduction (%) 14 Days After Application, ORYSA

Compound | pest or weed control at 140 g/ha
Nc1cc(-c2cc(F)c(OC(F)F)cc2F)nc(C(=O)O)c1Cl [Compound 187] | 0 to 29%

same assay, conditions: post-emergence, 336 h, SETFA: giant foxtail (Setaria faberi), application rate 70 g ai/ha, read-out: Visual Growth Reduction (%) 14 Days After Application, SETFA

Compound | pest or weed control at 70 g/ha
Nc1cc(-c2cc(F)c(OC(F)F)cc2F)nc(C(=O)O)c1Cl [Compound 187] | 60 to 74%

same assay, conditions: post-emergence, 336 h, SETFA: giant foxtail (Setaria faberi), application rate 140 g ai/ha, read-out: Visual Growth Reduction (%) 14 Days After Application, SETFA

Compound | pest or weed control at 140 g/ha
Nc1cc(-c2cc(F)c(OC(F)F)cc2F)nc(C(=O)O)c1Cl [Compound 187] | 75 to 84%

same assay, conditions: post-emergence, 336 h, SORVU: grain sorghum (Sorghum vulgare), application rate 70 g ai/ha, read-out: Visual Growth Reduction (%) 14 Days After Application, SORVU

Compound | pest or weed control at 70 g/ha
Nc1cc(-c2cc(F)c(OC(F)F)cc2F)nc(C(=O)O)c1Cl [Compound 187] | 0 to 29%

same assay, conditions: post-emergence, 336 h, SORVU: grain sorghum (Sorghum vulgare), application rate 140 g ai/ha, read-out: Visual Growth Reduction (%) 14 Days After Application, SORVU

Compound | pest or weed control at 140 g/ha
Nc1cc(-c2cc(F)c(OC(F)F)cc2F)nc(C(=O)O)c1Cl [Compound 187] | 0 to 29%

same assay, conditions: post-emergence, 336 h, TRZSS (wheat, Triticum aestivum), application rate 70 g ai/ha, read-out: Visual Growth Reduction (%) 14 Days After Application, TRZSS

Compound | pest or weed control at 70 g/ha
Nc1cc(-c2cc(F)c(OC(F)F)cc2F)nc(C(=O)O)c1Cl [Compound 187] | 0 to 29%

same assay, conditions: post-emergence, 336 h, TRZSS (wheat, Triticum aestivum), application rate 140 g ai/ha, read-out: Visual Growth Reduction (%) 14 Days After Application, TRZSS

Compound | pest or weed control at 140 g/ha
Nc1cc(-c2cc(F)c(OC(F)F)cc2F)nc(C(=O)O)c1Cl [Compound 187] | 45 to 59%

same assay, conditions: post-emergence, 336 h, ZEAMX: maize, corn (Zea mays), application rate 70 g ai/ha, read-out: Visual Growth Reduction (%) 14 Days After Application, ZEAMX

Compound | pest or weed control at 70 g/ha
Nc1cc(-c2cc(F)c(OC(F)F)cc2F)nc(C(=O)O)c1Cl [Compound 187] | 0 to 29%

same assay, conditions: post-emergence, 336 h, ZEAMX: maize, corn (Zea mays), application rate 140 g ai/ha, read-out: Visual Growth Reduction (%) 14 Days After Application, ZEAMX

Compound | pest or weed control at 140 g/ha
Nc1cc(-c2cc(F)c(OC(F)F)cc2F)nc(C(=O)O)c1Cl [Compound 187] | 0 to 29%

system: not given; assay: not given; conditions: not given

melting point | Compound
167.4 to 170.2 °C | Nc1cc(-c2cc(F)c(OC(F)F)cc2F)nc(C(=O)O)c1Cl [Compound 187]

system: Key Broadleaf Weed and Crop Species; assay: Post-emergent Test II herbicidal activity (Table 5); format: in vivo; conditions: post-emergence, 336 h; ABUTH: velvetleaf (Abutilon theophrasti); application rate 70 g ai/ha; post-emergent; 14 days after application; read-out: Visual Growth Reduction (%) 14 Days After Application, ABUTH
Summary of the method: as §1

Compound | pest or weed control at 70 g/ha
Nc1cc(-c2cc(F)c(OC(F)F)cc2F)nc(C(=O)O)c1Cl [Compound 187] | 45 to 59%

same assay, conditions: post-emergence, 336 h; ABUTH: velvetleaf (Abutilon theophrasti); application rate 140 g ai/ha; post-emergent; 14 days after application; read-out: Visual Growth Reduction (%) 14 Days After Application, ABUTH

Compound | pest or weed control at 140 g/ha
Nc1cc(-c2cc(F)c(OC(F)F)cc2F)nc(C(=O)O)c1Cl [Compound 187] | 60 to 74%

same assay, conditions: post-emergence, 336 h; AMARE: redroot pigweed (Amaranthus retroflexus); application rate 70 g ai/ha; post-emergent; 14 days after application; read-out: Visual Growth Reduction (%) 14 Days After Application, AMARE

Compound | pest or weed control at 70 g/ha
Nc1cc(-c2cc(F)c(OC(F)F)cc2F)nc(C(=O)O)c1Cl [Compound 187] | 95 to 100%

same assay, conditions: post-emergence, 336 h; AMARE: redroot pigweed (Amaranthus retroflexus); application rate 140 g ai/ha; post-emergent; 14 days after application; read-out: Visual Growth Reduction (%) 14 Days After Application, AMARE

Compound | pest or weed control at 140 g/ha
Nc1cc(-c2cc(F)c(OC(F)F)cc2F)nc(C(=O)O)c1Cl [Compound 187] | 95 to 100%

same assay, conditions: post-emergence, 336 h; BRSNN: oilseed-rape, canola (Brassica napus); application rate 70 g ai/ha; post-emergent; 14 days after application; read-out: Visual Growth Reduction (%) 14 Days After Application, BRSNN

Compound | pest or weed control at 70 g/ha
Nc1cc(-c2cc(F)c(OC(F)F)cc2F)nc(C(=O)O)c1Cl [Compound 187] | 75 to 84%

same assay, conditions: post-emergence, 336 h; BRSNN: oilseed-rape, canola (Brassica napus); application rate 140 g ai/ha; post-emergent; 14 days after application; read-out: Visual Growth Reduction (%) 14 Days After Application, BRSNN

Compound | pest or weed control at 140 g/ha
Nc1cc(-c2cc(F)c(OC(F)F)cc2F)nc(C(=O)O)c1Cl [Compound 187] | 75 to 84%

same assay, conditions: post-emergence, 336 h; CHEAL: lambsquarters (Chenopodium album); application rate 70 g ai/ha; post-emergent; 14 days after application; read-out: Visual Growth Reduction (%) 14 Days After Application, CHEAL

Compound | pest or weed control at 70 g/ha
Nc1cc(-c2cc(F)c(OC(F)F)cc2F)nc(C(=O)O)c1Cl [Compound 187] | 75 to 84%

same assay, conditions: post-emergence, 336 h; CHEAL: lambsquarters (Chenopodium album); application rate 140 g ai/ha; post-emergent; 14 days after application; read-out: Visual Growth Reduction (%) 14 Days After Application, CHEAL

Compound | pest or weed control at 140 g/ha
Nc1cc(-c2cc(F)c(OC(F)F)cc2F)nc(C(=O)O)c1Cl [Compound 187] | 95 to 100%

same assay, conditions: post-emergence, 336 h; EPHHL: wild poinsettia (Euphorbia heterophylla); application rate 70 g ai/ha; post-emergent; 14 days after application; read-out: Visual Growth Reduction (%) 14 Days After Application, EPHHL

Compound | pest or weed control at 70 g/ha
Nc1cc(-c2cc(F)c(OC(F)F)cc2F)nc(C(=O)O)c1Cl [Compound 187] | 95 to 100%

same assay, conditions: post-emergence, 336 h; EPHHL: wild poinsettia (Euphorbia heterophylla); application rate 140 g ai/ha; post-emergent; 14 days after application; read-out: Visual Growth Reduction (%) 14 Days After Application, EPHHL

Compound | pest or weed control at 140 g/ha
Nc1cc(-c2cc(F)c(OC(F)F)cc2F)nc(C(=O)O)c1Cl [Compound 187] | 95 to 100%

same assay, conditions: post-emergence, 336 h; HELAN: sunflower (Helianthus annuus); application rate 70 g ai/ha; post-emergent; 14 days after application; read-out: Visual Growth Reduction (%) 14 Days After Application, HELAN

Compound | pest or weed control at 70 g/ha
Nc1cc(-c2cc(F)c(OC(F)F)cc2F)nc(C(=O)O)c1Cl [Compound 187] | 45 to 59%

same assay, conditions: post-emergence, 336 h; HELAN: sunflower (Helianthus annuus); application rate 140 g ai/ha; post-emergent; 14 days after application; read-out: Visual Growth Reduction (%) 14 Days After Application, HELAN

Compound | pest or weed control at 140 g/ha
Nc1cc(-c2cc(F)c(OC(F)F)cc2F)nc(C(=O)O)c1Cl [Compound 187] | 60 to 74%

same assay, conditions: post-emergence, 336 h; VIOTR: wild pansy (Viola tricolor); application rate 70 g ai/ha; post-emergent; 14 days after application; read-out: Visual Growth Reduction (%) 14 Days After Application, VIOTR

Compound | pest or weed control at 70 g/ha
Nc1cc(-c2cc(F)c(OC(F)F)cc2F)nc(C(=O)O)c1Cl [Compound 187] | 0 to 29%

same assay, conditions: post-emergence, 336 h; VIOTR: wild pansy (Viola tricolor); application rate 140 g ai/ha; post-emergent; 14 days after application; read-out: Visual Growth Reduction (%) 14 Days After Application, VIOTR

Compound | pest or weed control at 140 g/ha
Nc1cc(-c2cc(F)c(OC(F)F)cc2F)nc(C(=O)O)c1Cl [Compound 187] | 0 to 29%
